Assay results reported in BindingDB's records for doi:10.1021/jm00053a023 (Monsanto, 1993).

Target: endothelin converting enzyme (Oryctolagus cuniculus)
Assay: Inhibition of endothelin converting enzyme in an RIA assay using big ET-1 as substrate (value corresponds to <25% inhibition when assayed at a 100 uM screening concentration)

| Structure (SMILES) | IC50 |
| --- | --- |
| CC(C)C[C@H](NP(=O)(O)OC1CCCCC1)C(=O)N[C@@H](Cc1c[nH]c2ccccc12)C(=O)O [2-[2-(Cyclohexyloxy-hydroxy-phosphorylamino)-4-methyl-pentanoylamino]-3-(1H-indol-3-yl)-propionic acid] | 48 µM |
| CCOP(=O)(O)N[C@@H](CC(C)C)C(=O)N[C@@H](Cc1c[nH]c2ccccc12)C(=O)O [2-[2-(Ethoxy-hydroxy-phosphorylamino)-4-methyl-pentanoylamino]-3-(1H-indol-3-yl)-propionic acid] | 109 µM |
| CC(C)C[C@H](NP(=O)(O)Cc1ccccc1)C(=O)N[C@@H](Cc1c[nH]c2ccccc12)C(=O)O [2-[2-(Hydroxy-benzyl-phosphorylamino)-4-methyl-pentanoylamino]-3-(1H-indol-3-yl)-propionic acid] | 61 µM |
